Among the data in US6417386B2, “Cyanohydrazone derivatives” (Syngenta Crop Protection, Inc., priority 1996, dated 2002) are melting point values, retold here.

In the case of `N#C/C(=N\Nc1c(Cl)cc(C(F)(F)F)cc1Cl)c1ccc(C#N)cc1` [Compound 3.4, 4-{1-[(2,6-dichloro-4-trifluoromethylphenyl)hydrazono]-2-nitriloethyl}benzonitrile], the melting point lay within 186 to 187 °C.
In turn, `N#C/C(=N\Nc1c(Cl)cc(C(F)(F)F)cc1Cl)c1ccc(Cl)cc1` [Compound 3.16, 4-{1-[(2,6-dichloro-4-trifluoromethylphenyl)hydrazono]-2-nitriloethyl}chlorobenzene] registered a melting point of 164 to 165 °C.

The term melting point denotes the temperature, or range, at which the solid turns liquid.
